One molecule from patent US11065296B2, “Antimicrobial peptide, its analog and use” (City University of Hong Kong, priority 2018, dated 2021) can be followed below.

Molecules are shown by their SMILES. Entries after “also recorded” stand apart in the source; their conditions may differ. Peptide text beside a SMILES is read from it.

In data set [1] the test system is Escherichia coli BL21 (DE3). In kind it is cell-based.
Experimental: (§3) MIC denotes the lowest concentration of an antimicrobial agent that can inhibit the growth of bacteria after overnight incubation.
(§4) Bacteria were grown in their respective media (Table 2 above) overnight at 37° C. or room temperature with constant shaking and then diluted to 10^6 CFU/ml in their respective medium. Stock solutions of peptides at 0.68 mM were prepared in distilled water. Bacteria and peptide were incubated (50 μl: 50 μl) to make the final peptide concentrations (0.68, 3.4, 6.8, 13.7, 34.1, 68.3, 136.5 μM) in a 96-microtitre plate and incubated for 24 h with constant shaking. […] Absorbance at 600 nm was detected every 3 h up to 24 h to obtain the growth curves. The minimal inhibition concentration (MIC) was defined as the lowest concentration of an antimicrobial agent that could inhibit the growth of bacteria after overnight incubation.
Data set [2] deals with Methicillin-resistant S. aureus ATCC BAA-41. It is filed as cell-based.
Experimental: as §3, §4
Data set [3] has as its system CpxR. In words: Quantitative real-time PCR. It is filed as cell-based. As to conditions: E. coli. An excerpt: (§1) Each group has 6 biological replicates. […] Gene-specific primers were designed with Primer-BLAST (NCBI).
Data set [4] has as its system Staphylococcus epidermidis ATCC 12228. It is filed as cell-based.
Experimental: as §3, §4
In data set [5] the test system is Multidrug-resistant S. aureus ATCC BAA-44. In kind it is cell-based.
Experimental: as §3, §4
In data set [6] the test system is panel of Gram-positive and Gram-negative bacteria. In words: Antibacterial activity against a panel of bacteria (summary). Particulars: including beta-lactam resistant bacteria. In kind it is cell-based.
Experimental: The antibacterial activity of the Peptide A against a panel of Gram-positive and Gram-negative bacteria (FIG. 5A, 5B and Table 2) was determined.
as §4
The next data set concerns Edwardsiella tarda PE210. In kind it is cell-based.
The test system of data set [7] is six mammalian cell lines (HeLa, MDA-MB, MC3T3, MCF7, H1299, and AG06858). Nature of the data set: In vitro toxicity, 48 hour MTT assay. It is filed as cell-based, Human; Mouse. As to conditions: concentrations close to the MIC for gram-negative bacteria. How it is done:
FIG. 11A is a plot showing the effect of Peptide A on viability of cultured mammalian cells, incubated for 48 h in the presence of Peptide A at different concentrations (μg/ml), as determined by MTT assay. Cell viability represented as peptide treated cell numbers over medium-only control. Statistically significant difference as compared to controls (*: p<0.05, **: p<0.01, n=4). FIG. 11B is a plot showing the ability of Peptide A to protect medaka from lethal challenge of E. tarda ([…]). Medaka was injected with 1 μl of Peptide A (0.68 mM), with 1 μl of E. tarda (10^7 CFU/ml) and Peptide A (0.68 mM) mixture, or with E. tarda alone (1 μl of E. tarda:10^7 CFU/ml). […] 20 fish per group. Log-rank (Mantel-Cox) test was applied for the comparison of survival curves (**: p<0.01).
Mammalian cell lines (Hela, MDA MB, MC3T3, MCF7, H1299, and AG06858) were seeded into 96 well-plates one day before treatment at a density of 3×10^5 cells/ml for a 48 hour MTT assay. The peptides were directly dissolved in the medium to make a 136.5 μM stock. […] The resulting solution was measured by using a microplate reader (BMG Polarstar Optima) at a wavelength of 570 nm. The optical density (OD) values were recorded and cell viability was calculated based on the OD readings normalized to the untreated cells.

The next data set deals with Pseudomonas aeruginosa A. It is filed as cell-based.
Data set [8] relates to Streptococcus pyogenes ATCC 14289. In kind it is cell-based.
Experimental: as §3, §4
In the next data set the test system is E. coli PQ37. Nature of the data set: SOS induction (chromotest). In kind it is cell-based. Particulars: E. coli PQ37, 120 min; Peptide A 3.4 μM, Piscidin 3.77 μM. How it is done: (§2) Results are expressed as 2^(−Delta Delta C (T)). […] Results are expressed as 2^(−Delta Delta C (T)).
E. coli PQ37 (Genotype: Sfi A and Lac Z fusion, lac Z) was cultured in lysogeny broth (LB) that contained 57.2 μM of ampicillin overnight (37° C.) and subcultured through 20 dilutions on another day so that OD600 equals to 0.2-0.4. PQ37 was incubated in 0.3 ml AMP (3.4 μM) or Piscidin ([…], 3.77 μM) for 2 hours and then re-suspended in the same volume of Z-buffer (Na2HPO4.7H2O 16.1 g/l, NaH2PO4.2H2O 6.24 g/L, KCl 0.75 g/L, MgSO4.7H2O 0.246 g/L and b-mercaptoethanol 0.3% (v/v)) for carrying out a β-galactosidase assay (β-ga) and alkaline phosphatase assay (ap), respectively. The bacteria were lysed with 0.1 ml of 0.1% SDS and 0.15 ml of chloroform. For the β-ga assay, the reaction was started by adding 0.6 ml of ortho-Nitrophenyl-β-galactoside (ONPG; Catalog number 34055, ThermoFisher Scientific) for color development and then stopped with the addition of 2 ml of 1 M NaCO3 solution. For ap acsay, the reaction was started by adding 0.6 ml of para-Nitrophenylphosphate (PNPP; Catalog number 34045, ThermoFisher Scientific) for color development which was then terminated by the addition of 1 ml of 2 M HCl solution and 1 ml of 2 M Tri-HCl to restore the colour. The absorbance was read at 420 nm against a blank without bacteria. The induction factor (IF) was calculated as the ratio R(x)/R(0) (R(x)=β-g/ap determined for the tested peptide; R(0)=β-g/ap determined for the LB). Furacin (antibiotic) and Piscidin were chosen as the controls. Each experiment was performed in triplicate.

The subject of a further data set is CpxA. As to conditions: E. tarda, 6.8 μM, 1 hr.
Data set [9] has as its system Acinetobacter baumannii ATCC 19606. It is filed as cell-based.
Experimental: as §3, §4
Data set [10] concerns Klebsiella pneumoniae (NDM-1) ATCC BAA-2470. In kind it is cell-based.
Experimental: as §3, §4
A further data set deals with RpoE. In words: Quantitative real-time PCR. In kind it is cell-based. Particulars: E. tarda, 6.8 μM, 1 hr.
From the text: as §2, §1

Data set [11] deals with CpxR. Nature of the data set: Quantitative real-time PCR. In kind it is cell-based. As to conditions: E. tarda.
From the text: as §2, §1

Data set [12] concerns Staphylococcus aureus ATCC 29213. In kind it is cell-based.
Experimental: as §3, §4
For data set [13], the system named is Vibrio alginolyticus ATCC 33840. It is filed as cell-based.
Experimental: as §3, §4

Experimental for CpxA: FIG. 9B is a plot showing the relative expression levels of CpxA, CpxR and RpoE in E. tarda upon treatment with Peptide A for 60 min at 6.8 μM. Results are expressed as 2^(−Delta Delta C (T)). FIG. 9C is a plot showing the CpxR gene expression in E. tarda after treatment with Peptide A (6.8 μM), Piscidin (7.5 μM), Ampicillin (143 μM) and Peptide A+Ampicillin (3.4 μM; 71.5 μM) for 1 hour. Results are expressed as 2^(−Delta Delta C (T)). […] Results expressed as log 2 fold change normalized with control group.
E. tarda or E. coli were treated with AMP or antibiotics or not treated as the control at inhibitory or subinhibitory for 1 hr. After that, the total RNA of the cells were collected by using the RNAprep pure cell/bacteria kit (TIANGEN), then reverse-transcribed into cDNA by using the One-Step FastQuant RT reagent kit with gDNase (TIANGEN). 18S ribosomal RNA (18S) was used as reference gene for qPCR normalization. Each group has 6 biological replicates. In brief, quantitative polymerase chain reaction (qPCR) assays were performed by using fluorescent dye powder SYBR Green PCR Master Mix and the ABI 7500 System. Gene-specific primers were designed with Primer-BLAST (NCBI). […] The relative expression levels (fold change) of the tested genes were calculated by using the relative expression based on the 2^(−Delta Delta C (T)) Method.
Experimental for Edwardsiella tarda PE210: as §3, §4

For the molecule `CC[C@H](C)[C@H](N)C(=O)N[C@@H](CCCNC(=N)N)C(=O)N[C@H](C(=O)N[C@H](C(=O)N[C@@H](CC(C)C)C(=O)N[C@@H](CCCNC(=N)N)C(=O)N[C@@H](C)C(=O)N[C@@H](CCC(N)=O)C(=O)NCC(=O)N[C@@H](C)C(=O)N[C@@H](CC(C)C)C(=O)N[C@@H](CCCCN)C(=O)N[C@H](C(=O)O)[C@@H](C)CC)[C@@H](C)CC)[C@@H](C)CC` [Peptide A, IRIILRAQGALKI] (H-IRIILRAQGALKI-OH; N-terminus and C-terminus assumed), the MICs in [1] is 5.5 µM; in data set [2] it was 21.8 µM; in [4], 2.7 µM; in [5], 21.8 µM; in the data set on Edwardsiella tarda PE210, 6.8 µM; in the data set with Pseudomonas aeruginosa A it was 34.1 µM. The MICs in data set [8] came out at 34.1 µM; in [9], 6.8 µM; in [10], 21.8 µM; in data set [12], 64 µM; in data set [13] it was 34.1 µM. Also, the CpxR expression entry in the data set on CpxR [3] is recorded as “inhibition of CpxR”. Also, in data set [6], the “effect on antibiotic resistant strains” value is on record as “effective on a number of antibiotic resistant strains”. Also, the “cytotoxic effect (cell viability, MTT)” value in data set [7] is listed as “No obvious toxicity; also recorded: relatively nontoxic”. In the data set with E. coli PQ37, the “SOS response (induction factor)” value is recorded as “consistent induction of SOS response”. Also, the “CpxA mRNA expression” value in the data set on CpxA is “remains unaffected”. Moreover, the “RpoE mRNA expression” value in the data set on RpoE was “significantly induced”. Also, the “CpxR mRNA expression” value in the data set on CpxR [11] (Peptide A 6.8 μM, 1 hr) is given as “significantly reduced”. Moreover, the “CpxR expression induced by ampicillin” value in the data set on CpxR [11] (Peptide A+Ampicillin (3.4 μM; 71.5 μM), 1 hour) is listed as “revert the induction of CpxR expression”.
